Data set [1] concerns rat. Particulars: Subchronic oral toxicity in rodents, wistar, Feed, dose end: 90 day, group: systemic, systemic / clinical chemistry / urea nitrogen / urea + systemic / hematology / blood clotting / blood clotting - clotting time + systemic / ….
Data set [2] concerns rabbit. As to conditions: Prenatal developmental toxicity study, new zealand white, Oral, Gavage/Intubation, dose end: 19 GD.
The test system of data set [3] is rat. As to conditions: Combined chronic toxicity/carcinogenicity; fischer; Oral; Feed; dose end: 2 year; group: systemic; systemic / clinical chemistry / alkaline phosphatase (alp/alk) / alkaline phosphatase (alp/alk) + systemic / clinical chemistry / globulins….
For data set [4], the system named is mouse. As to conditions: Carcinogenicity, b6c3f1, Oral, Feed, dose end: 18 month, group: systemic.
The test system of data set [5] is rat. Particulars: Multigenerational reproductive toxicity study, sprague dawley, Oral, Feed, dose end: 2 generation.
Data set [6] deals with rat. As to conditions: Prenatal developmental toxicity study, sprague dawley, Oral, Gavage/Intubation, dose end: 19 GD.
Data set [7] concerns rat. As to conditions: Developmental neurotoxicity study, sprague dawley, Oral, Feed, dose end: 72 PND, group: cannot be grouped.
The test system of data set [8] is mouse. Particulars: Developmental neurotoxicity study; other; Oral; Feed; dose end: 77 PND; group: cannot be grouped; systemic / pathology microscopic / brain / [other] + systemic / pathology microscopic / brain / depletion.
Data set [9] relates to rat. Particulars: Subchronic oral toxicity in rodents, other, Feed, dose end: 90 day, group: systemic.
The test system of data set [10] is mouse. Particulars: Combined chronic toxicity/carcinogenicity; b6c3f1; Oral; Feed; dose end: 107 week; group: systemic; systemic / pathology microscopic / liver / hepatocyte, multinucleate.
The subject of data set [11] is rat. As to conditions: Multigenerational reproductive toxicity study, sprague dawley, Oral, Feed, dose end: 3 generation.
The test system of data set [12] is rat. Particulars: Developmental neurotoxicity study; sprague dawley; Oral; [Not Specified]; dose end: 87 PND; group: cannot be grouped; systemic / in life observation / clinical signs / abnormal posture.
Data set [13] concerns rat. As to conditions: Carcinogenicity, other, Oral, Feed, dose end: 80 week, group: systemic.
The test system of data set [14] is mouse. Particulars: Carcinogenicity; b6c3f1; Oral; Feed; dose end: 80 week; group: systemic; systemic / pathology microscopic / liver / hepatocellular carcinoma + systemic / in life observation / clinical signs / alopecia + systemic….
The test system of data set [15] is rat. Particulars: Subchronic oral toxicity in rodents, fischer, Feed, dose end: 14 week, group: systemic, systemic / organ weight / liver / absolute + systemic / organ weight / liver / relative to body weight + systemic / hematology / platelet / ….
Data set [16] relates to rat. Particulars: Carcinogenicity; fischer; Oral; Feed; dose end: 104 week; group: systemic; systemic / pathology microscopic / liver / hypertrophy + systemic / pathology microscopic / liver / vacuolization cytoplasmic + systemic / ….
For data set [17], the system named is rat. Particulars: Developmental neurotoxicity study; sprague dawley; Oral; Gavage/Intubation; dose end: 91 PND; group: cannot be grouped; systemic / in life observation / body weight / offspring (pup) weight.
In data set [18] the test system is mouse. As to conditions: Subchronic oral toxicity in rodents, b6c3f1, Feed, dose end: 14 week.
In data set [19] the test system is mouse. As to conditions: Carcinogenicity; b6c3f1; Oral; Feed; dose end: 105 week; group: systemic; systemic / pathology microscopic / liver / eosinophilic focus + systemic / pathology microscopic / liver / hypertrophy + systemic / ….
[20] abbreviates: group: developmental, systemic / in life observation / body weight / fetal weight.
[21] abbreviates: group: maternal, systemic / in life observation / mortality / mortality + reproductive / reproductive performance / aborted / aborted + systemic / in life ….
Setting [22] is: systemic / organ weight / liver / absolute + systemic / in life observation / body weight / body weight.
Where [23] appears, read: systemic / organ weight / liver / absolute + systemic / in life observation / body weight / body weight + systemic / organ weight / liver / ….
[24] abbreviates: group: offspring, developmental / offspring survival late / viability index / viability index + systemic / pathology microscopic / kidney / dilatation.
[25] abbreviates: group: offspring, developmental / offspring survival late / viability index / viability index + systemic / pathology microscopic / kidney / dilatation + ….
Where [26] appears, read: group: parental, systemic / pathology microscopic / kidney / dilatation + systemic / in life observation / body weight / body weight + systemic / in life ….
Where [27] appears, read: group: developmental, developmental / developmental malformation / bone / incomplete ossification + developmental / developmental malformation / brain / dilated ….
[28] abbreviates: group: maternal, systemic / in life observation / clinical signs / piloerection + systemic / in life observation / clinical signs / salivation.
[29] abbreviates: group: maternal, systemic / in life observation / clinical signs / piloerection + systemic / in life observation / clinical signs / salivation + reproductive….
The mark [30] stands for this setting: systemic / in life observation / body weight / body weight + systemic / in life observation / body weight / body weight gain + systemic / in….
Setting [31] is: systemic / in life observation / food consumption / food consumption.
Setting [32] is: systemic / in life observation / food consumption / food consumption + systemic / in life observation / body weight / body weight.
Setting [33] is: group: offspring, developmental / developmental landmark / vaginal opening / vaginal opening + systemic / in life observation / body weight / offspring (pup) ….
Where [34] appears, read: group: parental, systemic / in life observation / body weight / body weight + systemic / in life observation / body weight / body weight gain + systemic / ….
The mark [35] stands for this setting: group: reproductive, reproductive / reproductive performance / implantations / implantations + reproductive / offspring survival early / litter size / litter ….
Setting [36] is: systemic / in life observation / body weight / body weight + systemic / in life observation / clinical signs / fur (altered appearance) + ….
Where [37] appears, read: systemic / in life observation / clinical signs / fur (altered appearance) + systemic / in life observation / clinical signs / palpable mass….
The mark [38] stands for this setting: group: maternal, reproductive / reproductive performance / estrous cycle / length.
Where [39] appears, read: group: systemic, systemic / in life observation / clinical signs / ataxia + systemic / in life observation / clinical signs / lethargy + systemic / in life ….

Where only a bound is given, the exact number is not on record here.

For orientation: LOAEL means the lowest dose or exposure tested at which an adverse effect was seen. The term NOAEL denotes the highest tested level that showed no adverse finding.

For `NC(=O)c1c(Cl)cccc1Cl` [2,6-Dichlorobenzamide], the LEL in data set [1] was determined as 49 mg/kg/day; in [2] (setting [20]), 90 mg/kg/day; in data set [2] (group: maternal, systemic / in life observation / mortality / mortality + systemic / in life observation / clinical signs / moribundity), 30 mg/kg/day. In addition, the LOAEL came out at 49 mg/kg/day in data set [1]; 90 mg/kg/day in [2] (setting [20]); 30 mg/kg/day in data set [2] (group: maternal, systemic / in life observation / mortality / mortality). Besides, the NEL in data set [1] stood at 14 mg/kg/day; in data set [2] (setting [20]) it was 30 mg/kg/day; in data set [2] (setting [21]), 10 mg/kg/day. For the same molecule, the results for the NOAEL in data set [1], in data set [2] (setting [20]) and in data set [2] (setting [21]) were 14 mg/kg/day, 30 mg/kg/day and 10 mg/kg/day, respectively.

Take `O=C([O-])c1cc(Oc2ccc(C(F)(F)F)cc2Cl)ccc1[N+](=O)[O-].[Na+]` [Acifluorfen-sodium]: the LEL in data set [3] is 125 mg/kg/day; in data set [4] (setting [23]), 119 mg/kg/day; in data set [5] (setting [24]), 50 mg/kg/day; in data set [5] (group: parental, systemic / pathology microscopic / kidney / dilatation + systemic / in life observation / body weight / body weight gain), 50 mg/kg/day; in [6] (setting [27]), 90 mg/kg/day; in data set [6] (setting [28]), 90 mg/kg/day. Also, the LOAEL in data set [3] was 125 mg/kg/day; in data set [4] (setting [22]), 119 mg/kg/day; in data set [5] (setting [24]), 50 mg/kg/day; in data set [5] (group: parental, systemic / pathology microscopic / kidney / dilatation) it was 50 mg/kg/day; in data set [6] (setting [27]) it was 90 mg/kg/day; in [6] (setting [28]), 90 mg/kg/day. Also, the NEL in [3] is 25 mg/kg/day; in data set [4] (setting [23]), less than 119 mg/kg/day; in data set [5] (setting [25]), 2.5 mg/kg/day; in data set [5] (setting [26]), 2.5 mg/kg/day; in data set [6] (setting [27]), 20 mg/kg/day; in [6] (setting [29]) it was 20 mg/kg/day. In addition, the no observed adverse effect level (NOAEL) in data set [3] was 25 mg/kg/day; in data set [4] (setting [22]) it was less than 119 mg/kg/day; in data set [5] (setting [25]) it was 2.5 mg/kg/day; in [5] (setting [26]), 2.5 mg/kg/day; in data set [6] (setting [27]) it was 20 mg/kg/day; in [6] (setting [29]), 20 mg/kg/day.

For the molecule `CC(C)(c1ccc(O)cc1)c1ccc(O)cc1` [Bisphenol A], the LOAEL in data set [7] (systemic / in life observation / body weight / body weight + systemic / in life observation / body weight / body weight gain) was 56.4 mg/kg/day; in data set [8], greater than 2000 mg/kg/day; in [9] (setting [32]), greater than 25 mg/kg/day; in data set [10], greater than 750 mg/kg/day; in [11] (setting [33]) it was greater than 500 mg/kg/day; in data set [11] (setting [34]), greater than 500 mg/kg/day. For the same molecule, the figures for the LOAEL in data set [11] (setting [35]) and in data set [12] were greater than 500 mg/kg/day and greater than 0.4 mg/kg/day, respectively. The LEL amounted to 56.4 mg/kg/day in data set [7] (setting [30]); 0.03 mg/kg/day in data set [8]; 5 mg/kg/day in data set [9] (setting [31]); 150 mg/kg/day in [10]; 500 mg/kg/day in data set [11] (setting [33]); 50 mg/kg/day in data set [11] (group: parental, systemic / in life observation / body weight / body weight + systemic / in life observation / body weight / body weight gain). Also, the LEL in [11] (setting [35]) came out at 500 mg/kg/day; in data set [12] it was 0.04 mg/kg/day. Besides, the NEL in data set [7] (setting [30]) was 5.85 mg/kg/day; in [8], less than 0.03 mg/kg/day; in data set [9] (setting [31]), less than 5 mg/kg/day; in [10], less than 150 mg/kg/day; in data set [11] (setting [33]), 50 mg/kg/day; in data set [11] (setting [34]) it was 5 mg/kg/day. The NEL in [11] (group: reproductive, reproductive / reproductive performance / implantations / implantations) is 50 mg/kg/day; in data set [12] it was less than 0.04 mg/kg/day. In addition, the NOAEL in data set [7] (setting [30]) is 5.85 mg/kg/day; in data set [8], no less than 2000 mg/kg/day; in data set [9] (setting [32]), no less than 25 mg/kg/day; in data set [10] it was no less than 750 mg/kg/day; in [11] (setting [33]), no less than 500 mg/kg/day; in data set [11] (setting [34]), no less than 500 mg/kg/day. The values for the NOAEL in data set [11] (setting [35]) and in data set [12] were no less than 500 mg/kg/day and no less than 0.4 mg/kg/day, respectively.

Take `ClC1=C(Cl)[C@]2(Cl)C3C(Cl)C(Cl)CC3[C@@]1(Cl)C2(Cl)Cl` (stereo not given in full) [Chlordane]: in [13] (setting [36]), the LOAEL was greater than 12.1 mg/kg/day and the no observed adverse effect level (NOAEL) was no less than 12.1 mg/kg/day. Besides, in [13] (setting [37]), the LEL was 6.04 mg/kg/day and the NEL is less than 6.04 mg/kg/day. Also, in data set [14], the LEL turned out to be 4.49 mg/kg/day, the LOAEL was greater than 8.43 mg/kg/day, the NEL was less than 4.49 mg/kg/day and the NOAEL is no less than 8.43 mg/kg/day.

In the case of `CCC1(c2ccccc2)C(=O)NCNC1=O` [Primidone], the LEL in data set [15] stood at 20 mg/kg/day; in data set [16] it was 25 mg/kg/day; in data set [17] it was 40 mg/kg/day; in [18] (setting [38]) it was 220 mg/kg/day; in data set [18] (group: systemic, systemic / organ weight / liver / absolute + systemic / organ weight / liver / relative to body weight + systemic / pathology microscopic / …), 100 mg/kg/day; in data set [19], 25 mg/kg/day. In addition, the LOAEL in data set [15] is greater than 400 mg/kg/day; in data set [16] it was 25 mg/kg/day; in data set [17] it was greater than 80 mg/kg/day; in [18] (setting [38]), greater than 1100 mg/kg/day; in [18] (setting [39]), greater than 1000 mg/kg/day; in data set [19] it was 25 mg/kg/day. Also, the NEL in data set [15] was less than 20 mg/kg/day; in [16], less than 25 mg/kg/day; in data set [17], less than 40 mg/kg/day; in data set [18] (setting [38]) it was 120 mg/kg/day; in data set [18] (setting [39]) it was 50 mg/kg/day; in data set [19], less than 25 mg/kg/day. In addition, the NOAEL in data set [15] is no less than 400 mg/kg/day; in [16], less than 25 mg/kg/day; in data set [17] it was no less than 80 mg/kg/day; in data set [18] (setting [38]), no less than 1100 mg/kg/day; in data set [18] (setting [39]), no less than 1000 mg/kg/day; in data set [19], less than 25 mg/kg/day.

Values taken from EPA's ToxRefDB 2.
